In ChEMBL document CHEMBL1201862, “PubChem BioAssay data set” (2004):
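The compound was tested at five concentrations on cells cultured in 96-well plates, with a 48-hour exposure period. GI50 is the concentration that inhibits growth by half.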 The source made the active and inactive calls. Rule as the data show it: active = GI50 up to about 1.1 µM and inactive = higher.

What was measured:
Assay in all cases: growth of human tumour cells (NCI), 48 h
SK-MEL-5 = test system: SK-MEL-5
786-0 = test system: 786-0
ACHN = test system: ACHN
Malme-3M = test system: Malme-3M
EKVX = test system: EKVX
SR = test system: SR
RPMI-8226 = test system: RPMI-8226
TK-10 = test system: TK-10
U-251 = test system: U-251
LOX IMVI = test system: LOX IMVI
NCI-H23 = test system: NCI-H23
OVCAR-8 = test system: OVCAR-8
HT-29 = test system: HT-29
UO-31 = test system: UO-31
M14 = test system: M14
HOP-92 = test system: HOP-92
CCRF-CEM = test system: CCRF-CEM

Measured: GI50

C=C1CC2CC(O)CC(C1)C2 (configuration not stated)
inactive: SK-MEL-5 > 100 µM | 786-0 > 100 µM | ACHN > 100 µM | Malme-3M > 100 µM | EKVX > 100 µM | SR 93.5 µM | RPMI-8226 32.4 µM | TK-10 > 100 µM | U-251 > 100 µM | LOX IMVI > 100 µM | NCI-H23 > 100 µM | OVCAR-8 > 100 µM | HT-29 > 100 µM | UO-31 > 100 µM | M14 > 100 µM | HOP-92 > 100 µM

CC(C)C12C=CC(C)(CC1)n1c(=O)c3cc4ccccc4cc3c(=O)n12 (configuration not stated)
inactive: SK-MEL-5 32 µM | 786-0 55.3 µM | CCRF-CEM 43.1 µM | ACHN 36.4 µM | Malme-3M 42.9 µM | EKVX 43.5 µM | SR 33.5 µM | RPMI-8226 36.3 µM | TK-10 29.9 µM | U-251 76 µM | LOX IMVI 41.9 µM | NCI-H23 52 µM | OVCAR-8 75.9 µM | HT-29 45.1 µM | UO-31 24.9 µM | M14 76.4 µM | HOP-92 38.5 µM

Cc1cccc2c1C(=O)OC2(C)c1cccc2ccccc12 (configuration not stated)
inactive: SK-MEL-5 16.4 µM | 786-0 30.9 µM | CCRF-CEM 17.5 µM | ACHN 30.6 µM | Malme-3M 25.5 µM | EKVX 35.7 µM | SR 23.2 µM | RPMI-8226 25.4 µM | TK-10 29.5 µM | U-251 26.2 µM | LOX IMVI 30.3 µM | NCI-H23 30.8 µM | OVCAR-8 32.3 µM | HT-29 30.5 µM | UO-31 32.8 µM | M14 13 µM | HOP-92 18.6 µM

CC(C)c1ccccc1NC(=O)/C(Cl)=C1/Sc2ccccc2NC1=O
inactive: SK-MEL-5 20.6 µM | 786-0 30.5 µM | CCRF-CEM 24.6 µM | ACHN 37.4 µM | Malme-3M 20 µM | EKVX 49.1 µM | RPMI-8226 20.9 µM | TK-10 71.9 µM | U-251 35 µM | LOX IMVI 29.2 µM | NCI-H23 19.6 µM | OVCAR-8 43.4 µM | UO-31 32.8 µM | M14 22.4 µM | HOP-92 11.6 µM

COc1ccc(C=O)c([N+](=O)[O-])c1
inactive: SK-MEL-5 17 µM | 786-0 66.2 µM | CCRF-CEM 4.51 µM | ACHN 58.6 µM | Malme-3M 21.5 µM | EKVX 99.5 µM | RPMI-8226 23.1 µM | TK-10 87.7 µM | U-251 13.2 µM | LOX IMVI 22.1 µM | NCI-H23 > 100 µM | OVCAR-8 31.6 µM | HT-29 16.9 µM | UO-31 37.7 µM | M14 38.1 µM | HOP-92 81.3 µM

CCOC(=O)C1S/C(=N/c2ccc(Cl)cc2C)N=C1C (configuration not stated)
inactive: SK-MEL-5 16.2 µM | 786-0 15.9 µM | ACHN 19.8 µM | Malme-3M 20.2 µM | EKVX 32.2 µM | TK-10 24.7 µM | U-251 15.8 µM | LOX IMVI 15 µM | NCI-H23 16.5 µM | OVCAR-8 28.1 µM | HT-29 16.1 µM | UO-31 17.3 µM | M14 19.5 µM | HOP-92 15.5 µM

C[C@@H]1[C@H](c2ccccc2)O[B-]2(c3ccc(Br)cc3)OC(=O)C[N+]12C (some centres not stated)
inactive: SK-MEL-5 > 100 µM | 786-0 > 100 µM | CCRF-CEM > 100 µM | ACHN 86.9 µM | Malme-3M > 100 µM | EKVX > 100 µM | SR > 100 µM | RPMI-8226 > 100 µM | U-251 > 100 µM | LOX IMVI > 100 µM | NCI-H23 > 100 µM | OVCAR-8 > 100 µM | HT-29 > 100 µM | UO-31 66.5 µM | M14 > 100 µM | HOP-92 44.3 µM

COc1ccc(C2Oc3c(cc(O)c(OC)c3C)[C@@H]2C)cc1OC (some centres not stated)
inactive: SK-MEL-5 31.6 µM | 786-0 > 100 µM | CCRF-CEM 78.5 µM | ACHN > 100 µM | Malme-3M > 100 µM | EKVX > 100 µM | RPMI-8226 4.44 µM | TK-10 > 100 µM | U-251 > 100 µM | LOX IMVI 82.6 µM | NCI-H23 > 100 µM | OVCAR-8 > 100 µM | HT-29 > 100 µM | UO-31 66.5 µM | M14 > 100 µM | HOP-92 43 µM

CC1(CO)OC1COCc1ccccc1 (configuration not stated)
inactive: 786-0 > 100 µM | CCRF-CEM > 100 µM | ACHN > 100 µM | Malme-3M > 100 µM | EKVX > 100 µM | SR > 100 µM | RPMI-8226 > 100 µM | U-251 > 100 µM | LOX IMVI > 100 µM | NCI-H23 > 100 µM | OVCAR-8 > 100 µM | HT-29 > 100 µM | UO-31 > 100 µM | M14 > 100 µM | HOP-92 > 100 µM
